Patent US20060078919A1, “Diagnostic test kit and methods of diagnosis and treatment of helicobacter SPP. associated infections” (Harry C. Gurney Janice Gurney, priority 2004, published 2006)

Test system: Helicobacter infection
Test: Vac A treatment of patients with pemphygus, allergic dermatitis and atopy
Type: in vivo
Conditions: more chronic and persistent cases, 25 to 75 mg bid
Description: Vacuolating Toxin A (recombinant Vac A; Austral Biologicals, catalog number HPA-5010-4) at 0.01 mg/ml in bacteriostatic water and 0.2 ml was injected subcutaneously 2-6 times per day at intervals of at least one hour to patients with various conditions associated with evidence of Helicobacter infection.

With `CN(C)CCOC(c1ccccc1)c1ccccc1` [diphenhydramine] the “use as supplement to Vac A therapy” value was “used successfully”.
